Results as given in ChEMBL document CHEMBL1156346, “Cytotoxic and novel compounds from Solanum indicum” (J Nat Prod, 2001).

System: OVCAR-3
Test: Cytotoxicity against human OVCAR-3 cells
Format: functional, cell-based

## C=C(C)[C@@H]1CC[C@@]2(C1)C(C)=CC(=O)C[C@H]2C [SOLAVETIVONE]
  IC50: 100 µM
